Assay results published in patent publication US20120004282A1, “RNA Interference Mediated Inhibition of the Intercellular Adhesion Molecule 1 (ICAM-1) Gene Expression Using Short Interfering Nucleic Acid (siNA)” (Merck Sharp & Dohme Corp,, priority 2009, published 2012).
[invAb] = inverted abasic unit; m = 2'-O-methyl; r = 2'-OH (RNA); f = 2'-fluoro

How the values were obtained:
Type in all cases: cell-based, human
OAS1 mRNA [1] = experiment: Membrane and endosomal TLR3 mediated immunostimulation, OAS1 mRNA increase in Calu 1 cells; conditions: Up to 100 nM
Protocol: Human lung epithelial carcinoma (Calu-1) cells were grown at 37 degrees in the presence of 5% CO2 and cultured in […] supplemented with 10% fetal bovine serum, glutamine and antibiotics.
(§1) A series of probes and primers were used for the detection of mRNA transcripts of ICAM-1, OAS1, and GAPDH (as control/normalisation) in the human cell lines. The assays were performed on an ABI 7900HT instrument according to the manufacturer's instructions.
(§2) With TaqMan data, critical threshold values (Ct) were converted to copy numbers corresponding to the particular gene analysed in each well of the 384 well plate. Six identical wells were prepared in each plate for a given treatment. […] Determination of the percentage coefficient of variation (CV) (% C.V.=[standard deviation/average]*100) allowed the omitting of wells whose value was an outlier (so that % C.V.<25). Relative abundance (aka relative expression) of a gene was determined by dividing the mean copy number of that gene with its GAPDH counterpart in that particular sample.
(§3) Calu-1 or NHBE cell were treated as above in Example 2 and used for the measurement of endosomal TLR3 mediated immunostimulation, with the inclusion of polyI:C as a positive control for OAS1 mRNA upregulation. For the measurement of membrane bound TLR3 mediated immunostimulation the Calu 1 cells were cultured at 12000 cells/per 96 well and siNAs administered in PBS in the absence of a delivery vehicle at a concentration of 100 nM, 30 nM, 10 nM, 3 nM, 1 nM, and 0.3 nM.

ICAM-1 protein = experiment: In situ ICAM-1 ELISA for surface ICAM-1 in INF-γ/TNF-α stimulated Calu-1 cells; conditions: relative to UC3
Protocol: In a 96-well plate, 5,000 Calu-1 cells/well were seeded in 100 uL of complete growth media and incubated overnight at 37 C with 5% CO2. The cells were transfected with siNAs using RNAiMax (Invitrogen, Cat# 13778-150); final concentrations of siRNAs are 10 nM-0.0000097 nM. The amount of RNAiMax in each well is 0.3 uL. The siNAs were incubated for 6 hours. The medium was replaced with 95 uL of fresh complete growth medium and add 5 uL/well of INF-γ/TNF-α at 10 ng/ml final concentration. The cells were incubated for 24, 48, and 72 hours.
In situ ELISA for surface ICAM-1 was performed as follows. The cells were washed ×2 in PBS. The wells were pre-blocked with Super Block buffer (Pierce, Cat # 37535) for 1.5 hours at 37° C. The cells were washed ×3 with PBS. The primary monoclonal antibody (Abcam, clone MEM-111, Cat ab2213) was diluted at 1 in 3000 in Super Block buffer. 50 μl of primary antibody was added per well. The wells were shook gently at RT for 1 hour. The cells were washed ×3 with PBS. The rabbit polyclonal secondary antibody (Abcam, Cat ab6728)was diluted 1:1000 in Super Block buffer. 50 μl secondary antibody were added per well. The mixture was incubated at 37° C. for 1 hour. The cells were washed ×3 with PBS. 50 μl of TMB solution (Sigma, Cat# T-8665) was added per well and incubated in the dark for 10 minutes. 50 μl Stop solution was added. The absorbance was read at 450 nm.
The effects of siNAs on ICAM-1 protein level were compared to each other and to the effect of the universal control using a multiple comparison ANOVA test to obtain a 95% confidence interval.
Various siNAs were also evaluated for their potential to knock-down ICAM-1 protein using an ELISA assay. Six siNAs were tested in an ICAM-1 ELISA assay across a range of concentrations of siNAs. The absorbance of each sample was normalized to the average absorbance obtained from the wells that were not stimulated with INF-γ/TNF-α (n=6). These wells served as a background control (see Table 6).

OAS1 mRNA [2] = experiment: Endosomal TLR3 mediated immunostimulation, OAS1 mRNA increase in NHBE cells; conditions: Up to 100 nM, siNA formulated with delivery vehicle
Protocol: as §1, §2, §3
The endosomal TLR3 mediated immunostimulation was also measured by recording the percent increase in OAS1 mRNA levels when the NHBE cells were transfected with the siNAs that had been formulated with the delivery vehicle (the Gemini surfactant GSC170 Dab—example 37 in WO03/82809) (percent increase in OAS1 mRNA levels relative to the Gemini delivery vehicle control). The TLR3 agonist Poly I: C is used as a positive control for OAS1 mRNA induction.

Row | Substance | Membrane & Endosomal TLR3 mediated Immunostimulation OAS1 mRNA increase Calu 1 Cells (OAS1 mRNA [1]) | ICAM-1 Protein % KD 24 h, 10 nM (ICAM-1 protein) [%] | ICAM-1 Protein % KD 48 h, 10 nM (ICAM-1 protein) [%] | ICAM-1 Protein % KD 72 h, 10 nM (ICAM-1 protein) [%] | Endosomal TLR3 mediated Immunostimulation OAS1 mRNA increase NHBE cells n = 3donors (OAS1 mRNA [2])
1 | 48722-DC: siNA duplex, ICAM-1 target site 2240 (h); sense B GAcAuAcAAcuGGGAAAuA TTB; antisense UAUuucccAGuuGuAuGucUU (sense GACAUACAACUGGGAAAUATT; antisense UAUUUCCCAGUUGUAUGUCUU; sense: DNA at AGT, 2'-fluoro at CU, [invAb] at 5' end, 3' end, backbone not given here; antisense: sugars from the 5' end rrrfffffmmffmfmfmffmm, backbone not given here) | No significant effect | 71 | 53 | 43 | No significant effect
2 | 29286-DC: siNA duplex, ICAM-1 target site 1838 (h); sense B cGGAAGAucAAGAAAuAcA TTB; antisense UGUAuuucuuGAucuuccGUU (sense CGGAAGAUCAAGAAAUACATT; antisense UGUAUUUCUUGAUCUUCCGUU; sense: DNA at AGT, 2'-fluoro at CU, [invAb] at 5' end, 3' end, backbone not given here; antisense: sugars from the 5' end rrrmffffffmmffffffmmm, backbone not given here) | No significant effect | 59 | 54 | 43 | No significant effect
3 | 29285-DC: siNA duplex, ICAM-1 target site 537 (h); sense B GGAAcAAccGGAAGGuGuA TTB; antisense UACAccuuccGGuuGuuccUU (sense GGAACAACCGGAAGGUGUATT; antisense UACACCUUCCGGUUGUUCCUU; sense: DNA at AGT, 2'-fluoro at CU, [invAb] at 5' end, 3' end, backbone not given here; antisense: sugars from the 5' end rrrmffffffmmffmffffmm, backbone not given here) | No significant effect | 59 | 52 | 36 | No significant effect
4 | 29288-DC: siNA duplex, ICAM-1 target site 2046 (h); sense B cAuuGuccucAGucAGAuA TTB; antisense UAUcuGAcuGAGGAcAAuGUU (sense CAUUGUCCUCAGUCAGAUATT; antisense UAUCUGACUGAGGACAAUGUU; sense: DNA at AGT, 2'-fluoro at CU, [invAb] at 5' end, 3' end, backbone not given here; antisense: sugars from the 5' end rrrffmmffmmmmrfmmfmmm, backbone not given here) | No significant effect | 52 | 52 | 47 | No significant effect
5 | 29282-DC: siNA duplex, ICAM-1 target site 2113 (h); sense B cGcAucuGAucuGuAGucA TTB; antisense UGAcuAcAGAucAGAuGcGUU (sense CGCAUCUGAUCUGUAGUCATT; antisense UGACUACAGAUCAGAUGCGUU; sense: DNA at AGT, 2'-fluoro at CU, [invAb] at 5' end, 3' end, backbone not given here; antisense: sugars from the 5' end rrrffmfmmmffmmmfmfmmm, backbone not given here) | No significant effect | 87 | 64 | 61 | No significant effect
6 | 29284-DC: siNA duplex, ICAM-1 target site 1141 (h); sense B cucAGucAGuGuGAccGcA TTB; antisense UGCGGucAcAcuGAcuGAGUU (sense CUCAGUCAGUGUGACCGCATT; antisense UGCGGUCACACUGACUGAGUU; sense: DNA at AGT, 2'-fluoro at CU, [invAb] at 5' end, 3' end, backbone not given here; antisense: sugars from the 5' end rrrmmffmfmffmmffmmmmm, backbone not given here) | No significant effect | 64 | 53 | 44 | No significant effect
